Molecular target: GluER (Gluconobacter oxydans, UniProt Q5FTL6, T36A)
Assay: UV-visible spectrum of reduced enzyme
Assay type: binding
Details: dithionite reduction

Cc1cc2c(cc1C)N(C[C@H](O)[C@H](O)[C@H](O)COP(=O)(O)O)c1[nH]c(=O)[nH]c(=O)c1N2 [FMNhq]
UV-visible spectrum of reduced enzyme: UV-visible spectrum of reduced GluER-T36A (FMNhq)

Source: article PMC7028431 (Science (New York, N.Y.), 2019)
